Experiments:
[1] = Cytotoxicity in mouse NMuMG cells assessed as cell growth at 20 uM after 72 hrs by colorimetry; assay type: cell-based; conditions: read-out: Activity
HeLa [2] = experiment: Ratio of IC50 for mouse NMuMG cells to IC50 for human HeLa cells
[3] = Antiproliferative activity against mouse B16F0 cells assessed as cell growth at 20 uM after 72 hrs by colorimetry; assay type: functional; conditions: B16F0, 72 h, read-out: Activity
MCF7 [4] = experiment: Antiproliferative activity against human MCF7 cells assessed as cell growth at 20 uM after 72 hrs by colorimetry; assay type: functional; conditions: MCF7, 72 h, read-out: Activity
[5] = Antiproliferative activity against mouse LM3 cells after 72 hrs by colorimetry; assay type: functional, cell-based; conditions: LM3, 72 h
[6] = Antiproliferative activity against mouse LM3 cells assessed as cell growth at 20 uM after 72 hrs by colorimetry; assay type: functional; conditions: LM3, 72 h, read-out: Activity
[7] = Ratio of IC50 for mouse NMuMG cells to IC50 for mouse B16F0 cells
MCF7 [8] = experiment: Antiproliferative activity against human MCF7 cells after 72 hrs by colorimetry; assay type: functional, cell-based; conditions: MCF7, 72 h
[9] = Antiproliferative activity against mouse B16F0 cells after 72 hrs by colorimetry; assay type: functional, cell-based; conditions: B16F0, 72 h
MCF7 [10] = experiment: Ratio of IC50 for mouse NMuMG cells to IC50 for human MCF7 cells
[11] = Cytotoxicity in mouse NMuMG cells after 72 hrs by colorimetry; assay type: cell-based
[12] = Ratio of IC50 for mouse NMuMG cells to IC50 for mouse […] cells
HeLa [13] = experiment: Antiproliferative activity against human HeLa cells assessed as cell growth at 20 uM after 72 hrs by colorimetry; assay type: functional; conditions: read-out: Activity
HeLa [14] = experiment: Antiproliferative activity against human HeLa cells after 72 hrs by colorimetry; assay type: functional, cell-based

With COC(=O)[C@@H]1N2C(=O)C(Br)(Br)[C@H]2S(=O)(=O)[C@@]1(C)CCl the viability at 72 h, 20 µM [1] was 35%.
For COC(=O)[C@@H]1N2C(=O)C(Br)(Br)[C@H]2S[C@@]1(C)CSc1nc(-c2ccccc2)c(-c2ccccc2)o1, the viability at 72 h, 20 µM [1] was 55%, the “Ratio IC50” value (HeLa [2]) was 4.4 and the growth at 20 µM [3] was 38%. It also gave a growth at 20 µM (MCF7 [4]) of 27%, an IC50 [5] of 14 µM and a growth at 20 µM [6] of 35%. For the same compound, the “Ratio IC50” value [7] was 2.8, the IC50 (MCF7 [8]) was 18 µM and the IC50 [9] was 11 µM. For the same compound, the “Ratio IC50” value (MCF7 [10]) was 1.7, the IC50 [11] was 31 µM and the “Ratio IC50” value [12] was 2.2. For the same compound, the growth at 20 µM (HeLa [13]) was 7% and the IC50 (HeLa [14]) was 7 µM.
In the case of COC(=O)[C@@H]1N2C(=O)[C@H](Cl)[C@H]2S[C@@]1(C)CSc1nc2ccccc2s1, the viability at 72 h, 20 µM [1] is reported as 55%, the “Ratio IC50” value (HeLa [2]) is reported as 2 and the growth at 20 µM [3] is reported as 48%. The growth at 20 µM (MCF7 [4]) was 66%, the IC50 [5] was 20 µM and the growth at 20 µM [6] was 55%. For the same compound, the “Ratio IC50” value [7] was 2, the IC50 [9] was 18 µM and the IC50 [11] was 36 µM. The “Ratio IC50” value [12] was 1.8, the growth at 20 µM (HeLa [13]) was 44% and the IC50 (HeLa [14]) was 18 µM.
With COC(=O)[C@@H]1N2C(=O)[C@H](Cl)[C@H]2S[C@@]1(C)CSc1nc(-c2ccccc2)c(-c2ccccc2)o1 the viability at 72 h, 20 µM [1] was 55%, the “Ratio IC50” value (HeLa [2]) was 2.5 and the growth at 20 µM [3] was 65%. It also gave a growth at 20 µM (MCF7 [4]) of 87%, a growth at 20 µM [6] of 65% and an IC50 [11] of 32 µM. The growth at 20 µM (HeLa [13]) was 27% and the IC50 (HeLa [14]) was 13 µM.
For COC(=O)[C@@H]1N2C(=O)[C@H](Cl)[C@H]2S[C@@]1(C)CSc1nc2ccccc2o1, the viability at 72 h, 20 µM [1] was 65%, the growth at 20 µM [3] was 68% and the growth at 20 µM (MCF7 [4]) was 84%. For the same compound, the growth at 20 µM [6] was 87% and the growth at 20 µM (HeLa [13]) was 68%.
With CCOc1ccc2nc(SC[C@]3(C)S[C@@H]4[C@@H](Cl)C(=O)N4[C@H]3C(=O)OC)sc2c1 the viability at 72 h, 20 µM [1] was 64%, the “Ratio IC50” value (HeLa [2]) was 1.8 and the growth at 20 µM [3] was 52%. It also gave a growth at 20 µM (MCF7 [4]) of 65%, an IC50 [5] of 24 µM and a growth at 20 µM [6] of 49%. The “Ratio IC50” value [7] was 1.6, the IC50 [9] was 27 µM and the IC50 [11] was 43 µM. For the same compound, the “Ratio IC50” value [12] was 1.8, the growth at 20 µM (HeLa [13]) was 56% and the IC50 (HeLa [14]) was 24 µM.
For COC(=O)[C@@H]1N2C(=O)[C@H](Cl)[C@H]2S[C@@]1(C)CSC1=NCCS1, the viability at 72 h, 20 µM [1] was 65%, the “Ratio IC50” value (HeLa [2]) was 2.2 and the growth at 20 µM [3] was 71%. It also gave a growth at 20 µM (MCF7 [4]) of 87%, an IC50 [5] of 20 µM and a growth at 20 µM [6] of 54%. For the same compound, the IC50 [11] was 41 µM, the “Ratio IC50” value [12] was 2 and the growth at 20 µM (HeLa [13]) was 48%. It also gave an IC50 (HeLa [14]) of 19 µM.
CCOc1ccc2nc(SC[C@@]3(C)[C@H](C(=O)OC)N4C(=O)[C@H](Cl)[C@H]4S3(=O)=O)sc2c1 showed a viability at 72 h, 20 µM [1] of 8%.

From ChEMBL document CHEMBL3632588 (Medchemcomm, 2015)
